Measurements from publication PMC6600574 (Molecules, 2019).

Columns and labels:
[1] = biological target: T1, CYP3A4 (Homo sapiens, UniProt P08684); test: Inhibition of recombinant CYP oxidation (fluorescent coumarin substrate); assay type: in vitro ADME; settings: read-out: Recombinant CYP IC50 (µM) with 95% confidence intervals
T1 construct: purchased BD Biosciences Discovery Labware (Bedford, MA, USA)
Description: Incubations were carried out in a total volume of 100 µl of 100 mM Tris-HCl buffer (pH 7.4) in all black, flat-bottom Costar 96-well plates (Corning Incorporated, Corning, NY, USA). […] The samples were then preincubated at 37 °C for 10 min. The reactions were initiated by the addition of NADPH, and 0–10 µM 7-hydroxycoumarin was used as the standard. The fluorescent signal was measured with a Victor^2 1420 multilabel plate counter (PerkinElmer Lifesciences Wallac, Turku, Finland) with excitation and emission wavelengths of 405 and 460 nm, respectively. Fluorescence was monitored every 2 min for 40 min from where the concentration was calculated at the various time points. From these, oxidation rates (µM/min) and the relative remaining activity of the sample at different concentrations were calculated. The data were fit to sigmoidal dose-response curves with nonlinear regression, and IC50 values (the concentration at which the sample reduced the metabolism of the CYP substrate by 50%) were determined. […] This was analyzed using nonlinear equations in Graph Pad Prism, which produced IC50 values and its 95% confidence interval as the results.

[2] = In vitro metabolism with human liver microsomes or cytosolic proteins and cofactors (UHPLC-QTOF-MS); assay type: in vitro ADME; settings: for Level of verbascoside during incubation: 10 µM
Description: From the incubation mixture, 450 µL acetonitrile was added to 150 µL of the samples to stop the reaction at time points of 0, 10, 20, 40, and 60 min. The CYP incubation mixture contained 20% NADPH regenerating system, whereas the glucuronidation incubation mixture contained 0.5 mM UDP-glucuronic acid with 5 mM MgCl2. The sulfonation incubation mixture contained 10 µM PAPS, […], and 500 µg cytosolic protein instead of microsomes, and the methylation incubation mixture contained 0.5 mM S-adenosylmethionine, 5 mM MgCl2, and 500 µg cytosolic protein instead of microsomes. […] The hydrolysis reaction was studied with an incubation mixture that contained 400 µg microsomal protein, or 500 µg cytosolic proteins, and 5 mM MgCl2. A sample with the absence of any enzyme was considered as the blank sample. After stopping the reactions, the samples were centrifuged for 20 min at 10,000× g and stored at −80 °C for analysis by the UHPLC-QTOF-MS system (Agilent Technologies, Waldbronn, Karlsruhe, Germany), which consisted of a 1290 LC system, a Jetstream ESI source, and a 6540 UHD accurate mass quadrupole time-of-flight (QTOF) mass spectrometry. The sample tray was kept at 4 °C during these analyses. […] Two microliters of sample were injected onto a column (Zorbax Eclipse XDB-C8, 2.1 × 100mm, 1.8 µm, Agilent Technologies, Palo Alto, CA, USA) that was kept at 50 °C. Mobile phases, delivered at 0.4 mL/min, consisted of water (eluent A) and methanol (eluent B), both containing 0.1% (v/v) of formic acid. The gradient employed was as follows: 2%→100% B (0–10 min); 100% B (10–14.5 min); 100%→2% B (14.5–14.51 min); and 2% B (14.51–16.50 min).
A Jetstream ESI source, operated in negative ionization mode, used the following conditions: drying gas temperature 325 °C and a flow of 10 L/min, sheath gas temperature 350 °C and a flow of 11 L/min, nebulizer pressure 45 psi, capillary voltage 3500 V, nozzle voltage 1000 V, fragmentary voltage 100 V, and skimmer 45 V. Nitrogen was used as the instrument gas. For data acquisition, a 2 GHz extended dynamic range mode was used from m/z 20 to m/z 1600. Data were collected in the centroid mode at an acquisition rate of 1.67 spectra/s with an abundance threshold of 150. The TOF was calibrated on a daily basis and subsequently operated at a high accuracy (<2 ppm). Continuous mass axis calibration was performed by monitoring two reference ions from an infusion solution throughout the runs. The reference ions were m/z 112.985587 and m/z 966.000725. Identification of the metabolites found in the treatments was based on accurate mass and isotope information (i.e., ratios, abundances, and spacing). The software for the identification of metabolites used was MassHunter Metabolite ID B.04.00 (Agilent Technologies, Santa Clara, CA, USA).

[3] = set-up: method as in Koo et al. (2006) [16]; settings: ref Koo et al. (2006) [16]; read-out: DPPH radical scavenging EC50; cited from earlier work

T1 sequence (P08684 whole entry): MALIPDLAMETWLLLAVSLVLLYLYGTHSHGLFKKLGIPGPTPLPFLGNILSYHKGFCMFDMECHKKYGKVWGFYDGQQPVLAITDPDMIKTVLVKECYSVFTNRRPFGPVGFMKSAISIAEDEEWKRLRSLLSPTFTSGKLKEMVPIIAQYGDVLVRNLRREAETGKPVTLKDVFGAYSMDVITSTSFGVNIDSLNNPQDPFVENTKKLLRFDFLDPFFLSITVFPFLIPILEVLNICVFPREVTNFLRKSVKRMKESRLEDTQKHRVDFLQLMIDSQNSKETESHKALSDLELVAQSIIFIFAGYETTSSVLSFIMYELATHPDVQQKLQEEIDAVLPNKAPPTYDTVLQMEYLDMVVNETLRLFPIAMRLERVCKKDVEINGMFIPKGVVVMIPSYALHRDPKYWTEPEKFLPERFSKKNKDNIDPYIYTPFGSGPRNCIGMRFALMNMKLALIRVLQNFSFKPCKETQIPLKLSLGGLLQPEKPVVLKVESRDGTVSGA

IC50 at 40 min ([1]; human, recombinant CYP3A4, pH 7.4, probe OCA369 (3-(3-benzyloxo)phenyl-7-methoxycoumarin), 10 µM): > 50 µM
IC50 [1]: 314 µM
SMILES: C[C@@H]1O[C@@H](O[C@@H]2[C@@H](O)[C@H](OCCc3ccc(O)c(O)c3)O[C@H](CO)[C@H]2OC(=O)/C=C/c2ccc(O)c(O)c2)[C@H](O)[C@H](O)[C@H]1O [Verbascoside]
Level of verbascoside during incubation ([2]; human liver cytosolic protein, PAPS, up to 60 min): decreased
Level of verbascoside during incubation ([2]; human liver cytosolic protein, S-adenosylmethionine, up to 60 min): decreased
Level of verbascoside during incubation ([2]; human liver microsomes, NADPH oxidation incubation): no decrease
Level of verbascoside during incubation ([2]; human liver microsomes, UDP-glucuronic acid, up to 60 min): decreased
Level of verbascoside during incubation ([2]; hydrolysis incubation, microsomal or cytosolic protein without cofactor): no decrease
Metabolites formed ([2]; PAPS incubation, levels increased up to 20 min): three different sulphate conjugates
Metabolites formed ([2]; S-adenosylmethionine incubation, levels increased up to 60 min): five different methylated conjugates
Metabolites formed ([2]; UDP-glucuronic acid incubation with human liver microsomes): No glucuronide conjugate
EC50 [3]: 1.28 µM
